In patent publication EP0647618A1, “NEW NON IONIC IODINE-CONTAINING DIMERS USEFUL AS X-RAY CONTRAST AGENTS, METHOD FOR THE PREPARATION THEREOF, AND GALENICAL COMPOSITIONS CONTAINING THEM” (CENTRO INVESTIGACION JUSTESA IMAGEN S.A., priority 1993, dated 1994):

Key:
[1] = Viscosity of aqueous solution at 300 mg I/ml; type: physicochemical; settings: for VISCOSITY 37°C mPa.s 300 mg I/ml: 300 mg I/ml (Table I)
[2] = Osmolality of aqueous solution at 300 mg I/ml; type: physicochemical; settings: for OSMOLALITY 37°C mOsm/kg at 300 mg I/ml: 300 mg I/ml (Table I)
RAT = assay: General toxicity, average lethal dose (DL50) in the rat, i.v.; type: in vivo
Method: (§1) On the other hand, radiologists need compounds with a wide range of uses: for example, angiography, urography, myelography, cisternography, lymphography, cardiography and gastrography. The products according to this invention fulfil the requirements for the above uses, as they have high water solubility, normally higher than 60% (w/v), which, in some cases, is as high as 100% at 20°C, without showing any tendency to crystallize. They also have a very low general toxicity, stated as the average lethal dose for the rat, DL₅₀.

physchem = type: physicochemical; settings: for solubility: water
Method: as §1

CN(C(=O)CN(CCO)CC(=O)N(C)c1c(I)c(C(=O)NCC(O)CO)c(I)c(C(=O)NCC(O)CO)c1I)c1c(I)c(C(=O)NCC(O)CO)c(I)c(C(=O)NCC(O)CO)c1I (centres unmarked) [ICJ-1692, N,N'-Bis-{3,5-bis-[N-(2,3-dihydroxypropyl)carbamoyl]-2,4,6-triiodophenyl}-N,N'-dimethyl-3-(2-hydroxethyl)-3-azapentanediamide]
VISCOSITY 37°C mPa.s 300 mg I/ml [1]: 9.3 mPa.s
VISCOSITY mPas (37°C) at 300 mg I/ml ([1]; 300 mg I/ml (Table II)): 9.3 mPas
OSMOLALITY mOsm/kg at 300 mg I/ml ([2]; 300 mg I/ml (Table II)): 174 mOsm/kg
OSMOLALITY 37°C mOsm/kg at 300 mg I/ml [2]: 174 mOsm/kg
DL50 (RAT) via i.v. g I/kg (RAT): > 20 g I/kg
SOLUBILITY IN WATER at 20° (physchem): > 60%
solubility (physchem): > 600 mg/mL

CC(=O)N(CC(O)CN(C(C)=O)c1c(I)c(C(=O)NCC(O)CO)c(I)c(C(=O)NCC(O)CO)c1I)c1c(I)c(C(=O)NCC(O)CO)c(I)c(C(=O)NCC(O)CO)c1I (centres unmarked) [IODIXANOL, Iodixanol, reference compound]
VISCOSITY 37°C mPa.s 300 mg I/ml [1]: 8.7 mPa.s
OSMOLALITY 37°C mOsm/kg at 300 mg I/ml [2]: 190 mOsm/kg
DL50 (RAT) via i.v. g I/kg (RAT): > 20 g I/kg
solubility (physchem): > 600 mg/mL
